Data taken from patent US11667652B2, “MCL1 inhibitors” (Gilead Sciences, Inc., priority 2019, dated 2023).
Read-outs that look alike come from different tables or passages of the source.

Experiments:
SKBR3 cells = test: SKBR3 Cell Viability Assay; type: cell-based; conditions: CellTiter Glo, read-out: MCL1 CV SKBR3 EC50
In short: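 Viability was measured by CellTiter-Glo luminescence after 72 h at 37° C, 5% CO2. Each well held 6,000 SKBR3 cells in McCoy's 5A/10% FBS dispensed onto serially diluted compound. Percent inhibition is relative to DMSO and 10 μM puromycin controls.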

MCL1/Bim = MCL1/Bim (Homo sapiens (Human), UniProt Q07820); test: MCL1/Bim Binding AlphaLISA Assay; conditions: recombinant human 6xHis-MCL1 (171-327), biotinylated Bim peptide (51-76)
MCL1/Bim, sequence (Q07820 171-327): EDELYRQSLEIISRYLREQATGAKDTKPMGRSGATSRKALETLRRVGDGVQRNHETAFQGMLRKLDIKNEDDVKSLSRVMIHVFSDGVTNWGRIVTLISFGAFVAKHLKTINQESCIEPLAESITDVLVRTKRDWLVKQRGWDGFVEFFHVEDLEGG
In short: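 AlphaLISA with 0.0625 nM human 6×His-MCL1 (171-327) and 0.0625 nM biotinylated Bim (51-76) peptide in 20 mM Hepes pH 7.5, 150 mM NaCl, 0.002% Brij 35, 1 mM DTT, 0.01% BSA. Compound preincubated with MCL1 1 h, Bim added 2 h, then acceptor and donor beads 1 h each; % inhibition versus DMSO and no-protein/peptide controls.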

[1] = Homo sapiens, SK-BR-3, 72 hours

| SMILES | EC50 (SKBR3 cells; [1]) [nM] | IC50 (MCL1/Bim) [nM] | EC50 (SKBR3 cells; 72 hours) [nM] |
| --- | --- | --- | --- |
| CO[C@H]1/C=C/C[C@H](C)C[S@@](=O)(Nc2cnc(C#N)cn2)=NC(=O)c2ccc3c(c2)N(C[C@@H]2CC[C@H]21)C[C@@]1(CCCc2cc(Cl)ccc21)CO3 [Example 5] | 4180 | 0.584 |  |
| COc1nn(C)cc1C(=O)N[S@@]1(=O)=NC(=O)c2ccc3c(c2)N(C[C@@H]2CC[C@H]2/C=C/C=C\[C@H](C)C1)C[C@@]1(CCCc2cc(Cl)ccc21)CO3 [Example 131] | 546 | 0.087 |  |
| C=CC[C@@H]1C[C@@H]2C[C@H](OC)[C@@H]3CC[C@H]3CN3C[C@@]4(CCCc5cc(Cl)ccc54)CCc4ccc(cc43)C(=O)N=[S@](=O)(NC(=O)c3cn(C)nc3OC)C[C@@H](C)[C@H]2O1 [Example 141] |  | 0.677 | 882 |
| CO[C@H]1/C=C/C[C@H](C)C[S@@](=O)(NC(=O)c2cc(C(=O)N3CCOCC3)n(C)c2)=NC(=O)c2ccc3c(c2)N(C[C@@H]2CC[C@H]21)C[C@@]1(CCCc2cc(Cl)ccc21)CO3 [Example 207] | 87.7 | 0.08 |  |
| COc1nn(C)cc1C(=O)N[S@@]1(=O)=NC(=O)c2ccc3c(c2)N(C[C@@H]2CC[C@H]2[C@@H](OC)C#C[C@H](OC)[C@H](C)C1)C[C@@]1(CCCc2cc(Cl)ccc21)CO3 [Example 72] |  | 0.309 | 294 |
| COc1nn(C)cc1C(=O)N[S@@]1(=O)=NC(=O)c2ccc3c(c2)N(C[C@@H]2CC[C@H]2[C@@](O)(CC(=O)N2CCOCC2)/C=C/C[C@H](C)C1)C[C@@]1(CCCc2cc(Cl)ccc21)CO3 [Example 98] |  | 0.031 | 73.3 |
| COc1nnc(NS2(=O)=NC(=O)c3ccc4c(c3)N(C[C@@H]3CC[C@H]3[C@@H](OC)/C=C/C[C@H](C)C2)C[C@@]2(CCCc3cc(Cl)ccc32)CO4)c2nn(C)cc12 (stereo partly drawn) [Example 17] |  | 2.39 | 4550 |
| COc1nn(C)cc1C(=O)N[S@@]1(=O)=NC(=O)c2ccc3c(c2)N(C[C@@H]2CC[C@H]2[C@](O)(CC(=O)N2CCN4CCOCC4C2)/C=C/C[C@H](C)C1)C[C@@]1(CCCc2cc(Cl)ccc21)CO3 (stereo partly drawn) [Example 103] |  | 0.074 | 34.6 |
| COc1nn(C)cc1C(=O)N[S@@]1(=O)=NC(=O)c2ccc3c(c2)N(C[C@@H]2CC[C@H]2[C@H]2OCC[C@@H]2CC[C@H](C)C1)C[C@@]1(CCCc2cc(Cl)ccc21)CO3 [Example 136] | 67.2 | 0.096 |  |
| COc1nn(C)cc1C(=O)N[S@@]1(=O)=NC(=O)c2ccc3c(c2)N(C[C@@H]2CC[C@H]2[C@H](OC)/C=C/[C@@](C)(O)[C@H](C)C1)C[C@@]1(CCCc2cc(Cl)ccc21)CO3 [Example 121] |  | 0.047 | 67.9 |
| COc1nn(C)cc1C(=O)N[S@@]1(=O)=NC(=O)c2ccc3c(c2)N(C[C@@H]2CC[C@H]2[C@@H](OCCN2CCC(OC)CC2)/C=C/C[C@H](C)C1)C[C@@]1(CCCc2cc(Cl)ccc21)CO3 [Example 63] | 25.2 | 0.034 |  |
| CO[C@H]1/C=C/CCC[S@@](=O)(NC(=O)NC2CC2)=NC(=O)c2ccc3c(c2)N(C[C@@H]2CC[C@H]21)C[C@]1(CO3)SCCc2cc(Cl)ccc21 [Example 183] | 454 | 0.24 |  |
| COc1nn(C)cc1C(=O)N[S@@]1(=O)=NC(=O)c2ccc3c(c2)N(C[C@@H]2CC[C@H]2[C@@H]2/C=C/[C@@H](OCCCC(=O)O2)[C@H](C)C1)C[C@@]1(CCCc2cc(Cl)ccc21)CO3 [Example 157] |  | 0.366 | 229 |
| COc1nn(C)cc1C(=O)N[S@@]1(=O)=NC(=O)c2ccc3c(c2)N(C[C@@H]2CC[C@H]2[C@@H](OC)/C=C/[C@H](OCCN2CC4(COC4)C2)[C@H](C)C1)C[C@@]1(CCCc2cc(Cl)ccc21)CO3 [Example 86] | 64.6 | 0.088 |  |
| COc1nn(C)cc1C(=O)N[S@@]1(=O)=NC(=O)c2ccc3c(c2F)N(C[C@@H]2CC[C@H]2[C@@H](OC)/C=C/C[C@H](C)C1)C[C@@]1(CCCc2cc(Cl)ccc21)CO3 [Example 161] | 33.8 | 0.089 |  |
| CCn1ccc(OC[C@H]2C/C=C/[C@H](OC)[C@@H]3CC[C@H]3CN3C[C@@]4(CCCc5cc(Cl)ccc54)COc4ccc(cc43)C(=O)N=[S@@](=O)(NC(=O)COC3CCOCC3)C2)n1 [Example 46] |  | 0.521 | 1600 |
| COc1nn(C)cc1C(=O)N[S@@]1(=O)=NC(=O)c2ccc3c(n2)N(C[C@@H]2CC[C@H]2[C@@H](OC)/C=C/[C@H](OC)[C@H](C)C1)C[C@@]1(CCCc2cc(Cl)ccc21)CO3 [Example 198] |  | 0.05 | 22.3 |

| SMILES | EC50 (SKBR3 cells; [1]) [nM] | IC50 (MCL1/Bim) [nM] | EC50 (SKBR3 cells; 72 hours) [nM] |
| --- | --- | --- | --- |
| COc1nn(C)cc1C(=O)N[S@@]1(=O)=NC(=O)c2ccc3c(c2)N(C[C@@H]2CC[C@H]2[C@@](O)(CC(=O)N2CCN(C4COC4)CC2)/C=C/C[C@H](C)C1)C[C@@]1(CCCc2cc(Cl)ccc21)CO3 [Example 104] |  | 0.034 | 54 |
| COc1nn(C)cc1C(=O)N[S@@]1(=O)=NC(=O)c2ccc3c(c2)N(C[C@@H]2CC[C@H]2[C@@H](OC)C[C@@H]2[C@H](OC[C@H]2C)[C@H](C)C1)C[C@@]1(CCCc2ccccc21)CO3 [Example 147] |  | 0.394 | 532 |
| COc1nn(C)cc1C(=O)N[S@@]1(=O)=NC(=O)c2ccc3c(c2)N(C[C@@H]2CC[C@H]2[C@](CN2CCN(C4COC4)CC2)(OC)/C=C/C[C@H](C)C1)C[C@@]1(CCCc2cc(Cl)ccc21)CO3 [Example 115] | 16 | 0.029 |  |
| COc1nn(C)cc1C(=O)N[S@]1(=O)=NC(=O)c2ccc3c(c2)N(C[C@@H]2CC[C@H]2C(=O)/C=C/C[C@H](C)C1)C[C@@]1(CCCc2cc(Cl)ccc21)CO3 [Example 47] |  | 0.167 | 81.9 |
| CO[C@H]1/C=C/[C@H](OC)CC[S@@](=O)(Nc2ncnc3nn(C)cc23)=NC(=O)c2ccc3c(c2)N(C[C@@H]2CC[C@H]21)C[C@@]1(CCCc2cc(Cl)ccc21)CO3 [Example 71] |  | 0.894 | 192 |
| COc1nn(C)cc1C(=O)N[S@@]1(=O)=NC(=O)c2ccc3c(c2)N(C[C@@H]2CC[C@H]2[C@H]2OCC[C@@H]2C[C@H](OC)[C@H](C)C1)C[C@@]1(CCCc2cc(Cl)ccc21)CO3 (mixture of isomers) [Example 155] | 88.9 | 0.072 |  |
| COc1nc(N[S@@]2(=O)=NC(=O)c3ccc4c(c3)N(C[C@@H]3CC[C@H]3[C@@H](OC)/C=C/C[C@H](C)C2)C[C@@]2(CCCc3cc(Cl)ccc32)CO4)c2cn(C)nc2n1 [Example 10] | 47.6 | 0.084 |  |
| COc1nn(C)cc1C(=O)N[S@@]1(=O)=NC(=O)c2ccc3c(c2)N(C[C@@H]2CC[C@H]2[C@@H](OC)[C@H](OC)/C=C\[C@H](C)C1)C[C@@]1(CCCc2cc(Cl)ccc21)CO3 [Example 133] | 1370 | 0.643 |  |
| COc1nn(C)cc1C(=O)N[S@@]1(=O)=NC(=O)c2ccc3c(c2)N(C[C@@H]2CC[C@H]2C(=O)/C=C/C[C@H](C)[C@H]1C)C[C@@]1(CCCc2cc(Cl)ccc21)CO3 [Example 48] |  | 0.693 | 173 |
| COc1nn(C)cc1C(=O)N[S@@]1(=O)=NC(=O)c2ccc3c(c2)N(C[C@@H]2CC[C@H]2/C=C/[C@@H]2OCCO[C@@H]2[C@H](C)C1)C[C@@]1(CCCc2cc(Cl)ccc21)CO3 [Example 153] |  | 0.189 | 1000 |
| COc1nn(C)cc1C(=O)N[S@@]1(=O)=NC(=O)c2ccc3c(c2)N(C[C@@H]2CC[C@H]2[C@@H](OC)/C=C/[C@H](NC(C)=O)[C@H](C)C1)C[C@@]1(CCCc2cc(Cl)ccc21)CO3 [Example 118] |  | 0.634 | 2520 |
| COc1nn(C)cc1C(=O)N[S@@]1(=O)=NC(=O)c2ccc3c(c2)N(C[C@@H]2CC[C@H]2[C@@H](OC)/C=C/[C@H](OCCN2CCN(C4COC4)CC2)[C@H](C)C1)C[C@@]1(CCCc2cc(Cl)ccc21)CO3 [Example 79] |  | 0.062 | 42.9 |
| CO[C@H]1/C=C/C[C@H](C)C[S@@](=O)(Nc2nc(Cl)nc3nn(C)cc23)=NC(=O)c2ccc3c(c2)N(C[C@@H]2CC[C@H]21)C[C@@]1(CCCc2cc(Cl)ccc21)CO3 [Example 9] | 170 | 0.11 |  |
| CCn1cc(C(=O)N[S@@]2(=O)=NC(=O)c3ccc4c(c3)N(C[C@@H]3CC[C@H]3[C@@H](OC)/C=C/C[C@H](C)C2)C[C@]2(CO4)C[C@@H]3C[C@@H]3c3cc(Cl)ccc32)cn1 [Example 164] | 88.1 | 0.105 |  |
| COc1nn(C)cc1C(=O)N[S@@]1(=O)=NC(=O)c2ccc3c(c2)N(C[C@@H]2CC[C@H]2[C@](O)(CC(=O)N2CCN(C4COC4)CC2)/C=C/C[C@H](C)C1)C[C@@]1(CCCc2cc(Cl)ccc21)CO3 [Example 105] |  | 0.112 | 163 |
| COc1nn(C)cc1C(=O)N[S@@]1(=O)=NC(=O)c2ccc3c(c2)N(C[C@@H]2CC[C@H]2[C@@H](OC)/C=C/[C@H](OCCN2CCN(C)CC2)[C@H](C)C1)C[C@@]1(CCCc2cc(Cl)ccc21)CO3 [Example 82] | 53.6 | 0.041 |  |
